Patent US20170020867A1 (priority 2015, published 2017)
“Also recorded” adds a separate entry of the source.

How the values were obtained:
[1] = system: C Reactive Protein (CRP) level; assay: Phase IIa clinical trial: C Reactive Protein (CRP) level; type: in vivo, human
[2] = system: human cord blood mast cells; conditions: cited from earlier work
[3] = system: patients with moderate to severe active Crohn's disease; assay: Phase IIa clinical trial: Crohn's Disease Activity Index (CDAI)
[4] = system: patients with moderate to severe active Crohn's disease; assay: Phase IIa clinical trial: corticosteroids decrease; type: in vivo, human; conditions: among patients who maintained corticosteroids during the study
From the text: Fifteen patients were on corticosteroids prior to study entry.

[5] = system: patients with moderate to severe active Crohn's disease; assay: Phase IIa clinical trial: safety
[6] = system: patients with moderate to severe active Crohn's disease; conditions: human, in vivo
[7] = week 8, OC dataset, ITT population, All
[8] = week 4, Observed Cases, ITT population
[9] = week 8, Observed Cases, ITT population
[10] = week 8, Observed Cases, ITT population, listed as masitinib
[11] = week 8, patients with CDAI >350 at baseline, ITT population
[12] = week 8, patients with CDAI >350 at baseline, ITT population, listed as masitinib

Cc1ccc(NC(=O)c2ccc(CN3CCN(C)CC3)cc2)cc1Nc1nc(-c2cccnc2)cs1 [Masitinib, 4-(4-methylpiperazin-1-ylmethyl)-N-[4-methyl-3-(4-pyridin-3ylthiazol-2-ylamino)phenyl]benzamide]
CRP level change from baseline ([1]; patients previously treated with anti-TNF): −30%
CRP absolute change, Median [1, 7]: -19.0 mg/L
CRP mean absolute change ± SD [1, 7]: -19.7 ± 21.8 mg/L
FcεRI-mediated degranulation [2]: inhibition of FcεRI-mediated degranulation
mean CDAI decrease ([3]; 4 weeks after the initiation of treatment): 80 units
additional remission, number of patients ([3]; after the first 8-week period): one
Complete remission, number of patients ([3]; during the first 8-week period): two
Complete remission, patients ([3]; patient presenting with CDAI>350 at baseline): 10%
CDAI enhanced response (at least 100 pts decrease), patients ([3]; week 4, LOCF, ITT population): 5 (31.3%)
CDAI response (at least 70 pts decrease), patients ([3]; week 4, LOCF, ITT population): 8 (50.0%)
CDAI enhanced response (at least 100 pts decrease), patients [3, 8]: 5 (31.3%)
CDAI response (at least 70 pts decrease), patients [3, 8]: 8 (50.0%)
CDAI response (at least 70 pts decrease), patients ([3]; week 4, Observed Cases, ITT population, listed as masitinib): 50%
CDAI enhanced response (at least 100 pts decrease), patients ([3]; week 8, LOCF, ITT population): 5 (31.3%)
CDAI response (at least 70 pts decrease), patients ([3]; week 8, LOCF, ITT population): 7 (43.8%)
Mean CDAI absolute change from baseline (SD) ([3]; week 8, LOCF, ITT population): −59.9 (112.2)
Median CDAI absolute change from baseline ([3]; week 8, LOCF, ITT population): −64.5
Mean CDAI absolute change from baseline (SD) ([3]; week 8, OC, ITT population): −86.0 (128.9)
Median CDAI absolute change from baseline ([3]; week 8, OC, ITT population): −101.0
Mean CDAI absolute change from baseline (SD) ([3]; week 8, OC, ITT population, listed as masitinib): −86
CDAI enhanced response (at least 100 pts decrease), patients ([3]; week 8, OC, ITT, L1): (100.0%)
Mean CDAI absolute change from baseline ([3]; week 8, OC, ITT, L1): −153.0
Median CDAI absolute change from baseline ([3]; week 8, OC, ITT, L1): −153.0
CDAI enhanced response (at least 100 pts decrease), patients ([3]; week 8, OC, ITT, L1, listed as masitinib): 100%
CDAI enhanced response (at least 100 pts decrease), patients ([3]; week 8, OC, ITT, L2): (0.0%)
Mean CDAI absolute change from baseline ([3]; week 8, OC, ITT, L2): −50.0
Median CDAI absolute change from baseline ([3]; week 8, OC, ITT, L2): −50.0
CDAI enhanced response (at least 100 pts decrease), patients ([3]; week 8, OC, ITT, L3): (57.1%)
Mean CDAI absolute change from baseline ([3]; week 8, OC, ITT, L3): −86.7
Median CDAI absolute change from baseline ([3]; week 8, OC, ITT, L3): −103.0
CDAI enhanced response (at least 100 pts decrease), patients ([3]; week 8, OC, ITT, L3, listed as masitinib): 57%
CDAI response (at least 70 pts decrease), patients ([3]; week 8, OC, ITT, patients naive or previously treated with corticosteroids (L1)): (100.0%)
CDAI response (at least 70 pts decrease), patients ([3]; week 8, OC, ITT, patients previously treated with azathioprine (Immurel) or immunotherapy (L2)): (50.0%)
CDAI response (at least 70 pts decrease), patients ([3]; week 8, OC, ITT, patients previously treated with biological agent (L3)): (71.4%)
CDAI response (at least 70 pts decrease), patients ([3]; week 8, OC, ITT, patients previously treated with biological agent (L3), listed as masitinib): 71%
CDAI enhanced response (at least 100 pts decrease), patients [3, 9]: 5 (50.0%)
CDAI response (at least 70 pts decrease), patients [3, 9]: 7 (70.0%)
improvement of mean disease activity [3, 9]: 23%
CDAI enhanced response (at least 100 pts decrease), patients [3, 10]: 50%
CDAI response (at least 70 pts decrease), patients [3, 10]: 70%
CDAI absolute change from baseline Mean (SD) [3, 11]: −152.3 (78.5)
CDAI absolute change from baseline, Median [3, 11]: −116.5
CDAI enhanced response (at least 100 pts decrease), patients [3, 11]: 4 (66.7%)
CDAI response (at least 70 pts decrease), patients [3, 11]: 6 (100.0%)
CDAI enhanced response (at least 100 pts decrease), patients [3, 12]: 67%
CDAI response (at least 70 pts decrease), patients [3, 12]: 100%
patients whose corticosteroid dose was decreased during study [4]: 50%
tolerability ([5]; 8 weeks of observation, 4.5 or 6 mg/kg/day oral in two daily intakes): well tolerated; also recorded: well-tolerated
patients who experienced at least one adverse event (AE) ([5]; during the treatment): 94%
adverse event abdominal pain, patients ([5]; human, in vivo): 22%
adverse event asthenia, patients ([5]; human, in vivo): 33%
adverse event nausea, patients ([5]; human, in vivo): 28%
adverse event vomiting, patients ([5]; human, in vivo): 33%
death [6]: no death
patients with a serious adverse event ([6]; 8 weeks): 44%
